Source: article PMC4745898 (Science signaling, 2015)

Biological target: TRPA1 (Rattus norvegicus, UniProt Q6RI86)
Assay: TIRF Ca2+ imaging of TRPA1 sparklets in cerebral artery endothelial cells
Type: cell-based

Sequence of TRPA1 (Q6RI86 whole entry): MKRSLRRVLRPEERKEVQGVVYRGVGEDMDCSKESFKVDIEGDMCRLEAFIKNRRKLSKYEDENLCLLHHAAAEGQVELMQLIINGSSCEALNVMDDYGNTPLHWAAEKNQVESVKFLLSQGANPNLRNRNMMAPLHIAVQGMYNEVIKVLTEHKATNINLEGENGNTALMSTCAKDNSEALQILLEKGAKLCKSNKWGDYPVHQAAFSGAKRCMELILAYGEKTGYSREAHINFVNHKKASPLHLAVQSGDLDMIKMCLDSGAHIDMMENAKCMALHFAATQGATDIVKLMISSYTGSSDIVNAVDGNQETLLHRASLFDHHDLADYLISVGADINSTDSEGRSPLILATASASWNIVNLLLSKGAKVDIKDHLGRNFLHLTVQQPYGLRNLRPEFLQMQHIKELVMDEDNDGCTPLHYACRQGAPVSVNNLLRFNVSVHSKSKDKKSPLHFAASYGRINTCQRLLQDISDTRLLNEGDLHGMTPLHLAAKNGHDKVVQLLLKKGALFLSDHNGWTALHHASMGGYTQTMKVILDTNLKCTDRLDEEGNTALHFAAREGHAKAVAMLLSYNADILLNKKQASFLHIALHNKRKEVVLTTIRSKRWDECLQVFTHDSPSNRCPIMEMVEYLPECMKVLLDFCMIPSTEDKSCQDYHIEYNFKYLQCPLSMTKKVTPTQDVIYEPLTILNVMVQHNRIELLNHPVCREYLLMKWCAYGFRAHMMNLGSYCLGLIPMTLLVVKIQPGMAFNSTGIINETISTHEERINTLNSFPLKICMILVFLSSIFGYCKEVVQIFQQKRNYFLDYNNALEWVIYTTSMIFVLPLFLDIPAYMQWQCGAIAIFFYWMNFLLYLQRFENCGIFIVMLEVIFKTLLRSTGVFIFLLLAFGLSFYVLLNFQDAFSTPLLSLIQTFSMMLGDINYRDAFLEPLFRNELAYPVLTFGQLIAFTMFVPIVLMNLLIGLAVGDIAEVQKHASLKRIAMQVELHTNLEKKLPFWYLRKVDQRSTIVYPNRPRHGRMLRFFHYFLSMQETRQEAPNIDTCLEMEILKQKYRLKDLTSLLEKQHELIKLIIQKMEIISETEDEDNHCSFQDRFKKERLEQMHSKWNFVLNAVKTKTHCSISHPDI

CCCCCC(O)C=CC=O (stereo not shown) [4-HNE]
EC50: 64.8 ± 50.4 nM
